Reference: US7067552B2, “Radiosensitizing taxanes and their pharmaceutical preparations” (Florida State University, priority 1995, dated 2006)
Several values for one entry are separate records, joined by “and”; a condition that tells them apart may be missing. Equal values may be shown once. Entries after “also recorded” stand apart in the source; their conditions may differ. Read-outs that look alike come from different tables or passages of the source.

Legend:
[1] = test system: HCT-116 cells; assay: In vitro chemotherapeutic radiosensitization, HCT-116 cells; assay type: cell-based, human; conditions: for radiosensitization of HCT-116 cells (in words): different radiation doses; for sensitizer enhancement ratio (SER): irradiated after two hours incubation
[2] = test system: mouse mammary adenocarcinoma (MTG-B); assay: In vivo chemotherapeutic activity in MTG-B tumor bearing mice; design: species or system C3H/Hej mice
[3] = test system: MTG-B tumor; assay type: in vivo, C3H/Hej mice
[4] = test system: CHO cells; assay: In vitro chemotherapeutic radiosensitization, CHO cells; assay type: cell-based, Chinese hamster; conditions: for radiosensitization of CHO cells (in words): different radiation doses; for sensitizer enhancement ratio (SER): irradiated after two hours incubation
[5] = In vivo drug toxicity (acute toxicity); conditions: C3H/HeJ, mouse, in vivo, ip
[6] = test system: C3H/HeJ mice; conditions: mouse, in vivo
[7] = test system: Chinese hamster ovary (CHO) cells; assay: In vitro chemotherapeutic activity, colony forming assay, CHO cells; assay type: cell-based; conditions: at the 50% survival level; 37° C. for 24 hours
Description: (§1) 4.1. In vitro chemotherapeutic activity. Chinese hamster ovary (CHO) and human colon carcinoma (HCT-116) cells were treated with different concentrations of taxol, taxoltere metro, or taxoltere p-nip at 37° C. for 24 hours. Cell survival was evaluated by the colony forming assay.

[8] = test system: MTG-B mammary tumors; design: species or system mice; conditions: mouse, in vivo, ip
[9] = test system: C3H/HeJ mice; assay: In vivo drug toxicity (acute toxicity); conditions: for LD50/5: C3H/HeJ mice
[10] = test system: human colon carcinoma (HCT-116) cells; assay: In vitro chemotherapeutic activity, colony forming assay, HCT-116 cells; assay type: cell-based; conditions: at the 1% survival level; 37° C. for 24 hours
Description: as §1

Row | Compound | radiosensitization of HCT-116 cells (in words) [1] | radiosensitization of CHO cells (in words) [4] | times more effective than taxol in killing CHO cells [7] | increase of survival time / life span ([2]; mouse, in vivo) [%] | survival time ([2]; mouse, in vivo) [days] | times more effective than taxol under equitoxic conditions ([2]; mouse, in vivo) [times] | tumor doubling times (in words) ([2]; mouse, in vivo) | tumor doubling time (TDT) ([3]; mouse, in vivo, ip) | LD50/5 ([9]; i.p.) [mg/kg] | times more effective than taxol in killing HCT-116 cells [10] | further results
1 | CC(=O)O[C@H]1C(=O)[C@@]2(C)[C@H]([C@H](OC(=O)c3ccccc3)[C@]3(O)C[C@H](OC(=O)[C@H](O)[C@@H](NC(=O)c4ccccc4)c4ccccc4)C(C)=C1C3(C)C)[C@]1(OC(C)=O)CO[C@@H]1C[C@@H]2O [taxol, reference compound] | does not | does not | – | – | – | – | – | – | – | – | survival time ([2]; 40% of the LD50/5 dose, MTG-B tumor-bearing mice, control 13 days): 17 days; increase of survival time / life span ([2]; 40% of the LD50/5 dose, versus control 13 days): 31%; tumor doubling time (TDT) ([3]; single dose i.p., 40% of LD50/5, drug alone, control 3.5 days): 14.5 days; tumor doubling time (TDT) ([3]; single dose i.p., 40% of LD50/5, plus 22 Gy Xray one day later, 22 Gy alone 8.5 days): 19.5 days; LD50 at 5 days [5]: 141 mg/kg; Severe toxic symptoms (constriction of pupils, rough hair) [6]: observed
2 | N-debenzoyl-N-(t-butylcarbamoyl)-3′-desphenyl-3′-(4-nitrophenyl) taxol [taxoltere p-nip] | strongly radiosensitize | strongly radiosensitize | about 45 times | 1015 | 145 | 33 | even further extended; also recorded: again greatly extended | 36.5 days and 65 days | 79.13 | about 30 times | sensitizer enhancement ratio (SER) ([1]; concentration not given): 1.5; cure rate [8]: 40% and 75%; tumor doubling time ([3]; mouse, in vivo, iv): 52 days; sensitizer enhancement ratio (SER) ([4]; concentration not given): 1.6; LD50/5 ([9]; i.v.): 134.16 mg/kg
3 | N-debenzoyl-N-(t-butylcarbamoyl)-7-(metronidazoleoxycarbonyl) taxol [taxoltere metro] | strongly radiosensitize | strongly radiosensitize | about 15 times | 123 | 29 | 4 | again greatly extended | 20.5 days and 29.5 days | 249.67 | about 10 times | sensitizer enhancement ratio (SER) ([1]; 10 nM): 1.2; sensitizer enhancement ratio (SER) ([4]; 100 nM): 2.3; Severe toxic symptoms (constriction of pupils, rough hair) ([9]; 24 hours after drug administration, high drug dose levels): not
